The source of these data is patent US20100291204A1, “COMBINATION OF A LONG-ACTING HYPNOTIC AGENT AND A SHORT-ACTING HYPNOTIC AGENT AND THERAPEUTIC USE THEREOF” (SANOFI-AVENTIS, priority 2005, published 2010).

Marks after values point to notes of the source that are not given here.

The conditions of series [1]: cited from earlier work; for bioavailability: in vivo.
In a further series the test system is male Sprague-Dawley rats. In words: Effects on sleep in rats (6 hours of recording, day 1 versus vehicle day 0). The format is in vivo, rat. The conditions noted are these: for Lag time of appearance of NREM sleep: change versus vehicle control; for Duration of NREM sleep / Duration of sleep: total over 6 hours of recording. As for the experimental part:
For this study, four groups of male Sprague-Dawley rats are used, each group comprising from 5 to 9 rats.
Group A receives eplivanserin (oral route, hemifumarate) at a dose of 3 mg/kg p.o.
Group B receives zolpidem (oral route, hemitartrate) at a dose of 3 mg/kg p.o.
Group C receives (orally) in combination 3 mg/kg p.o. of eplivanserin hemifumarate and 3 mg/kg of zolpidem hemitartrate, the two compounds being administered with an interval of 5 minutes.
Finally, group D receives zolpidem (oral route, hemitartrate) at a dose of 10 mg/kg p.o.
The data are recorded on day 0 (control day), when the animals receive only a vehicle (distilled water and methylcellulose) and on day 1 when the animals receive the active principles.
The data are recorded for 6 hours each day, the active principles being administered 15 minutes before the start of recording.
In Table I, the results are expressed as percentages relative to the control groups receiving only the vehicle, unless otherwise indicated.
Duration of sleep: total duration of sleep during the 6 hours of recording. Duration of NREM sleep: total duration of NREM sleep during the 6 hours of recording. Lag time of appearance of NREM sleep: time measured from the start of the recording up to the moment of the first period of NREM sleep. Mean duration of the periods of NREM sleep: duration of NREM sleep/number of periods of NREM sleep during the 6 hours of recording.

Where [2] appears, read: Group B: zolpidem hemitartrate 3 mg/kg p.o., relative to vehicle control.
The mark [3] stands for this setting: Group D: zolpidem hemitartrate 10 mg/kg p.o., 6 hours of recording, relative to vehicle control.
[4] abbreviates: Group D: zolpidem hemitartrate 10 mg/kg p.o., relative to vehicle control.

The term bioavailability denotes dose-corrected exposure relative to a reference, in per cent. Consider `CN(C)CCO/N=C(/C=C/c1ccc(O)cc1)c1ccccc1F` [eplivanserin], for which, in series [1], the bioavailability was 80%. In addition, the “Lag time of appearance of NREM sleep” value in the series with male Sprague-Dawley rats (Group A: eplivanserin hemifumarate 3 mg/kg p.o., from start of recording to first period of NREM sleep) was “+0.6 min”.

For the compound `Cc1ccc(-c2nc3ccc(C)cn3c2CC(=O)N(C)C)cc1` [zolpidem], in series [1], the bioavailability is 70%. For the same compound, in series [1] (mean dose between 5 and 10 mg in a conventional formulation), the duration of action result was “up to 6 hours”. For the same compound, the “Mean duration of the periods of NREM sleep” value with male Sprague-Dawley rats (Group B: zolpidem hemitartrate 3 mg/kg p.o., 6 hours of recording, relative to vehicle control) is given as −15%; with male Sprague-Dawley rats (setting [3]), “+31%**”. For the same compound, the “Lag time of appearance of NREM sleep” value with male Sprague-Dawley rats (Group B: zolpidem hemitartrate 3 mg/kg p.o., from start of recording to first period of NREM sleep) was -6 min; in the series on male Sprague-Dawley rats (Group D: zolpidem hemitartrate 10 mg/kg p.o.) it was -1.2 min. Besides, the “Duration of NREM sleep” value in the series with male Sprague-Dawley rats (setting [2]) is listed as “+4%”; with male Sprague-Dawley rats (setting [4]) it was “+33%**”. For the same compound, the Duration of sleep in the series on male Sprague-Dawley rats (setting [2]) is −2%; in the series on male Sprague-Dawley rats (setting [4]), −20%**. Further, in the series with male Sprague-Dawley rats (setting [3]), the “Mean number of periods of NREM sleep” value is recorded as “+1%”.
